Laboratory results from publication PMC4052532, “Biodistribution and SPECT Imaging Study of ^99mTc Labeling NGR Peptide in Nude Mice Bearing Human HepG2 Hepatoma” (BioMed Research International, 2014).
Read-outs that look alike come from different tables or passages of the source. Where a SMILES comes first, the peptide text is derived from it. Bridges are numbered along the chain shown (N, C = ends).

What was measured:
[1] = In vitro stability in mouse serum (radio-TLC); type: in vitro ADME; details: 37°C, 12 h incubation, percentage of parent tracer by radio-TLC, read-out: ^99mTc-NGR peptide remained intact
Procedure: (§1) The stability of ^99mTc-labeled NGR peptide in PBS and mouse serum at 37°C was studied at 1, 3, 6, and 12 h. Then the percentage of parent tracer was determined by radio-TLC (Table 1).

[2] = In vitro stability in PBS (radio-TLC); type: physicochemical; details: PBS pH 7.4, 37°C, 12 h incubation, percentage of parent tracer by radio-TLC
Procedure: as §1

[3] = system: HepG2 cells; assay: Cell uptake study; type: cell-based, human; details: 37°C, ~370 kBq/well, gamma counter, n = 3, mean ± SD
Procedure: HepG2 cells were seeded into 48-well plates at a density of 2 × 10^5 cells per well 24 h prior to the experiment. HepG2 cells were then incubated with ^99mTc-labeled NGR peptides (~370 kBq/well) at 37°C for 15, 30, 60, 120, and 240 min. After incubation, tumor cells were washed three times with ice cold PBS and harvested by trypsinization with 0.25% trypsin/0.02% EDTA (Hyclone, USA). Cell suspensions were collected and measured in a gamma counter (Zhida, Shannxi, China). Cell uptake data was presented as percentage of total input radioactivity added to the culture medium after decay correction. Experiments were performed twice with triplicate wells.

[4] = Biodistribution studies; type: in vivo; details: female, BALB/c nude, mouse, total radioactivity; for tissue uptake at 1 h / tissue uptake at 4 h / tissue uptake at 8 h / tissue uptake at 12 h: n = 5, mean ± SD; for tissue uptake at 4 h: 4 h postinjection; for tissue uptake at 8 h: 8 h postinjection; for tissue uptake at 12 h: 12 h postinjection
Procedure: HepG2 cells were grown in high glucose DMEM culture medium. All cell lines were cultured in medium supplemented with 10% (v/v) fetal bovine serum (Gibco, USA), 1% mycillin, and 1% Glutamine (Beyotime, China) at 37°C in a humidified atmosphere with 5% CO2. Using female BALB/c nude mice (4–6 weeks of age), HepG2 tumor model was established by subcutaneous injection of 2 × 10^6 HepG2 tumor cells (0.1 mL) into the right upper flanks. When the tumor volume reached 0.8~1.0 cm in diameter (2-3 weeks after inoculation), the tumor-bearing mice were used for SPECT imaging and biodistribution studies. All animal studies were approved by Clinical Center at the FMMU.
Nude mice bearing human HepG2 hepatoma were randomly divided into 5 groups and injected with ~7.4 MBq of ^99mTc-NGR with or without excess unlabelled NGR peptide (20 mg/kg). After injection of the tracer, mice were sacrificed and dissected. The radioactivity in the HepG2 tumor, major organs, and muscle were collected and weighed wet with tubes (%ID/g). Mean uptake (%ID/g) for a group of animals was calculated with standard deviations. Values were expressed as mean ± SD (n = 5/group).

[5] = blood, iv, ~7.4 MBq i.v., read-out: Blood uptake
[6] = heart, iv, ~7.4 MBq i.v., read-out: Heart uptake
[7] = intestine, iv, ~7.4 MBq i.v., read-out: Intestine uptake
[8] = iv, HepG2 tumor, ~7.4 MBq i.v., read-out: Tumor uptake
[9] = kidney, iv, ~7.4 MBq i.v., read-out: Kidney uptake
[10] = liver, iv, ~7.4 MBq i.v., read-out: Liver uptake
[11] = lung, iv, ~7.4 MBq i.v., read-out: Lung uptake
[12] = muscle, iv, ~7.4 MBq i.v., read-out: Muscle uptake
[13] = spleen, iv, ~7.4 MBq i.v., read-out: Spleen uptake
[14] = stomach, iv, ~7.4 MBq i.v., read-out: Stomach uptake

N=C(N)NCCC[C@@H]1NC(=O)CNC(=O)[C@H](CC(N)=O)NC(=O)[C@@H](NC(=O)CNC(=O)CNC(=O)[C@@H](N)Cc2ccc(O)cc2)CSSC[C@@H](C(=O)O)NC1=O [^99mTc-NGR, metal not drawn] (H-YGGCNGRC-OH; disulfide 4-8)
remaining at 12 h [1]: ~92% | ^99mTc-NGR peptide remained intact [2]: ~92% | uptake in HepG2 cells (percentage of total input radioactivity) ([3]; 15 min): about 0.49 ± 0.05% | uptake in HepG2 cells (percentage of total input radioactivity) ([3]; 2 h (maximum)): 1.52 ± 0.13% | uptake in HepG2 cells (percentage of total input radioactivity) ([3]; 4 h): About 1.35 ± 0.27% | tissue uptake at 1 h ([4]; blood, iv, 1 h postinjection, ~7.4 MBq i.v., read-out: Blood uptake): 3.82 ± 0.41 %ID/g | tissue uptake at 4 h [4, 5]: 1.75 ± 0.39 %ID/g | tissue uptake at 8 h [4, 5]: 0.98 ± 0.22 %ID/g | tissue uptake at 12 h [4, 5]: 0.75 ± 0.31 %ID/g | tissue uptake at 1 h ([4]; blood, iv, Blocking (1 h), coinjection of unlabelled NGR 20 mg/kg, read-out: Blood uptake): 2.56 ± 0.34 %ID/g | tissue uptake at 1 h ([4]; heart, iv, 1 h postinjection, ~7.4 MBq i.v., read-out: Heart uptake): 3.74 ± 0.54 %ID/g | tissue uptake at 4 h [4, 6]: 2.26 ± 0.33 %ID/g | tissue uptake at 8 h [4, 6]: 1.15 ± 0.32 %ID/g | tissue uptake at 12 h [4, 6]: 1.07 ± 0.25 %ID/g | tissue uptake at 1 h ([4]; heart, iv, Blocking (1 h), coinjection of unlabelled NGR 20 mg/kg, read-out: Heart uptake): 2.73 ± 0.29 %ID/g | tissue uptake at 1 h ([4]; intestine, iv, 1 h postinjection, ~7.4 MBq i.v., read-out: Intestine uptake): 2.65 ± 1.06 %ID/g | tissue uptake at 4 h [4, 7]: 2.18 ± 0.96 %ID/g | tissue uptake at 8 h [4, 7]: 1.93 ± 0.22 %ID/g | tissue uptake at 12 h [4, 7]: 1.6 ± 0.27 %ID/g | tissue uptake at 1 h ([4]; intestine, iv, Blocking (1 h), coinjection of unlabelled NGR 20 mg/kg, read-out: Intestine uptake): 2.4 ± 0.59 %ID/g | tissue uptake at 1 h ([4]; iv, HepG2 tumor, 1 h postinjection, ~7.4 MBq i.v., read-out: Tumor uptake): 2.52 ± 0.83 %ID/g | tissue uptake at 4 h [4, 8]: 3.03 ± 0.71 %ID/g | tissue uptake at 8 h [4, 8]: 3.26 ± 0.63 %ID/g | tissue uptake at 12 h [4, 8]: 2.81 ± 0.25 %ID/g | tissue uptake at 1 h ([4]; iv, HepG2 tumor, Blocking (1 h), coinjection of unlabelled NGR 20 mg/kg, read-out: Tumor uptake): 1.65 ± 0.61 %ID/g | tissue uptake at 1 h ([4]; kidney, iv, 1 h postinjection, ~7.4 MBq i.v., read-out: Kidney uptake): 7.93 ± 2.13 %ID/g | tissue uptake at 4 h [4, 9]: 7.03 ± 0.95 %ID/g | tissue uptake at 8 h [4, 9]: 6.21 ± 0.43 %ID/g | tissue uptake at 12 h [4, 9]: 5.96 ± 0.41 %ID/g | tissue uptake at 1 h ([4]; kidney, Blocking (1 h), coinjection of unlabelled NGR 20 mg/kg, read-out: Kidney uptake): 5.03 ± 0.97 %ID/g | tissue uptake at 1 h ([4]; liver, iv, 1 h postinjection, ~7.4 MBq i.v., read-out: Liver uptake): 4.07 ± 0.76 %ID/g | tissue uptake at 4 h [4, 10]: 3.85 ± 0.73 %ID/g | tissue uptake at 8 h [4, 10]: 3.44 ± 0.52 %ID/g | tissue uptake at 12 h [4, 10]: 3.26 ± 0.47 %ID/g | tissue uptake at 1 h ([4]; liver, Blocking (1 h), coinjection of unlabelled NGR 20 mg/kg, read-out: Liver uptake): 3.27 ± 0.16 %ID/g | tissue uptake at 4 h [4, 11]: 2.13 ± 0.44 %ID/g | tissue uptake at 8 h [4, 11]: 1.86 ± 0.38 %ID/g | tissue uptake at 12 h [4, 11]: 1.21 ± 0.31 %ID/g | tissue uptake at 1 h ([4]; lung, iv, Blocking (1 h), coinjection of unlabelled NGR 20 mg/kg, read-out: Lung uptake): 2.04 ± 0.28 %ID/g | tissue uptake at 1 h ([4]; muscle, iv, 1 h postinjection, ~7.4 MBq i.v., read-out: Muscle uptake): 0.53 ± 0.33 %ID/g | tissue uptake at 4 h [4, 12]: 0.46 ± 0.11 %ID/g | tissue uptake at 8 h [4, 12]: 0.43 ± 0.14 %ID/g | tissue uptake at 12 h [4, 12]: 0.39 ± 0.22 %ID/g | tissue uptake at 1 h ([4]; muscle, iv, Blocking (1 h), coinjection of unlabelled NGR 20 mg/kg, read-out: Muscle uptake): 0.48 ± 0.27 %ID/g | tissue uptake at 1 h ([4]; spleen, iv, 1 h postinjection, ~7.4 MBq i.v., read-out: Spleen uptake): 2.37 ± 0.43 %ID/g | tissue uptake at 4 h [4, 13]: 2.09 ± 0.6 %ID/g | tissue uptake at 8 h [4, 13]: 1.88 ± 0.42 %ID/g | tissue uptake at 12 h [4, 13]: 1.72 ± 0.37 %ID/g | tissue uptake at 1 h ([4]; spleen, Blocking (1 h), coinjection of unlabelled NGR 20 mg/kg, read-out: Spleen uptake): 1.89 ± 0.22 %ID/g | tissue uptake at 1 h ([4]; stomach, iv, 1 h postinjection, ~7.4 MBq i.v., read-out: Stomach uptake): 3.07 ± 0.56 %ID/g | tissue uptake at 4 h [4, 14]: 2.2 ± 0.26 %ID/g | tissue uptake at 8 h [4, 14]: 1.61 ± 0.39 %ID/g | tissue uptake at 12 h [4, 14]: 1.56 ± 0.32 %ID/g | tissue uptake at 1 h ([4]; stomach, Blocking (1 h), coinjection of unlabelled NGR 20 mg/kg, read-out: Stomach uptake): 3.41 ± 0.31 %ID/g | tissue to tissue ratio at 1 h ([4]; tumor/kidney, iv, 7.4 MBq, 1 h postinjection, read-out: Tumor-to-normal tissue uptake ratio T/K): 0.32 ± 0.15 | tissue to tissue ratio at 1 h ([4]; tumor/liver, iv, 7.4 MBq, 1 h postinjection, read-out: Tumor-to-normal tissue uptake ratio T/L): 0.62 ± 0.33 | tissue to tissue ratio at 1 h ([4]; tumor/muscle, iv, 7.4 MBq, 1 h postinjection, read-out: Tumor-to-normal tissue uptake ratio T/M): 4.75 ± 0.91 | tissue to tissue ratio at 8 h ([4]; tumor/muscle, iv, 7.4 MBq, 8 h (highest value), read-out: tumor/muscle (T/NT) value): 7.58 ± 1.92
